From article PMC7259758 (PLoS ONE, 2020)

Legend:
[1] = molecular target: T1, MAPK1 (h) (Homo sapiens, UniProt P27361); experiment: Radiometric protein kinase assay (Eurofins); type: biochemical; settings: 40 min; read-out: MAPK1 IC50
T1 construct: purchased Eurofins, Dundee, Scotland
Procedure: (§1) Enzymatic biochemical activities were evaluated in radiometric protein kinase assays (Eurofins, Dundee, Scotland). Kinases are incubated with buffer, substrate and [γ-^33P]-ATP (specific activity approx. 500 cpm/pmol, concentration as required). The reaction is initiated by the addition of the MgATP mix. After incubation for 40 minutes at room temperature, the reaction is stopped by the addition of 3% phosphoric acid solution. 10 μL of the reaction is then spotted onto a P30 filtermat and washed three times for 5 minutes in 75 mM phosphoric acid and once in methanol prior to drying and scintillation counting. All compounds are prepared to 50x final assay concentration in 100% DMSO. Positive control wells contain all components of the reaction with 2% DMSO. Blank wells contain all components of the reaction, with a reference inhibitor replacing the compound of interest. Each kinase is assigned a standard assay concentration of ATP within 20 μM of its apparent Km. Compounds were screened at 1 μM in duplicate or tested at 10 concentrations at half log dilution starting from 10 μM in singlicate. Dose response curves were fitted with four parameter logistic curve to obtain IC50 values. […]
(§2) Staurosporine is used as reference for all tested enzymes except for SRPK3 (reference inhibitor: K-252a. Nocardiopsis sp), NEK2 (reference inhibitor: […]), and CK2, CK2α2, MAPK1, MAPK2 (reference inhibitor: PKR Inhibitor). See Table 1 below for additional details.

[2] = molecular target: T2, SRPK1(h) (Homo sapiens, UniProt Q96SB4); experiment: Radiometric protein kinase assay (Eurofins); type: biochemical; settings: ATP 10 μM
T2 construct: purchased Eurofins, Dundee, Scotland
Procedure: as §1, §2

[3] = molecular target: T3, SRPK3 (h) (Homo sapiens, UniProt Q9UPE1); experiment: Radiometric protein kinase assay (Eurofins); type: biochemical; settings: ATP 15 μM
T3 construct: purchased Eurofins, Dundee, Scotland
Procedure: as §1, §2

[4] = molecular target: T4, CLK3(h) (Homo sapiens, UniProt P49761); experiment: Radiometric protein kinase assay (Eurofins); type: biochemical; settings: ATP 90 μM
T4 construct: purchased Eurofins, Dundee, Scotland
Procedure: as §1, §2

[5] = molecular target: T5, DYRK1A(h) (Homo sapiens, UniProt Q13627); experiment: Radiometric protein kinase assay (Eurofins); type: biochemical; settings: ATP 45 μM
T5 construct: purchased Eurofins, Dundee, Scotland
Procedure: as §1, §2

[6] = molecular target: T6, DYRK2 (h) (Homo sapiens, UniProt Q92630); experiment: Radiometric protein kinase assay (Eurofins); type: biochemical; settings: ATP 15 μM
T6 construct: purchased Eurofins, Dundee, Scotland
T6 sequence (Q92630 1-601): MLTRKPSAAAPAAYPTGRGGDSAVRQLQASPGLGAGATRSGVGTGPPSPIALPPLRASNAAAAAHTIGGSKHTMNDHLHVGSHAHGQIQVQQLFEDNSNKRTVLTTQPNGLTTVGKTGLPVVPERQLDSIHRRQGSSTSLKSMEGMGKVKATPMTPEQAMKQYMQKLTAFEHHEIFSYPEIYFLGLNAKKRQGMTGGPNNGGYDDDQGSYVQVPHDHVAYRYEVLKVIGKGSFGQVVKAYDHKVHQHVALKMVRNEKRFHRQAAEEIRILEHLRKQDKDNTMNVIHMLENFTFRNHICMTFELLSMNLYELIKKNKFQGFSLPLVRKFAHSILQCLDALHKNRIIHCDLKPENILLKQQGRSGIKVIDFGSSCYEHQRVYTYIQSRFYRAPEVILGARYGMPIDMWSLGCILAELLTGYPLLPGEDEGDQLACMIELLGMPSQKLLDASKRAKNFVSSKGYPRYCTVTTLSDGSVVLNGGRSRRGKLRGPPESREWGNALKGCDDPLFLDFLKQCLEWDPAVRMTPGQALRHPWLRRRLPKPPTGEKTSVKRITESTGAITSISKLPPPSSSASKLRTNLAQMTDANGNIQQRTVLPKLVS
Procedure: as §1, §2

[7] = molecular target: T7, CK2 (h) (Homo sapiens, UniProt P68400); experiment: Radiometric protein kinase assay (Eurofins); type: biochemical; settings: 40 min; ATP 10 μM; read-out: CK2 IC50
T7 construct: purchased Eurofins, Dundee, Scotland
Procedure: as §1, §2

[8] = molecular target: T8, CLK4(h) (Homo sapiens, UniProt Q9HAZ1); experiment: Radiometric protein kinase assay (Eurofins); type: biochemical; settings: ATP 10 μM
T8 construct: purchased Eurofins, Dundee, Scotland
Procedure: as §1, §2

[9] = molecular target: T9, CLK1(h) (Homo sapiens, UniProt P49759); experiment: Radiometric protein kinase assay (Eurofins); type: biochemical; settings: ATP 10 μM
T9 construct: purchased Eurofins, Dundee, Scotland
Procedure: as §1, §2

[10] = molecular target: T10, SRPK2 (h) (Homo sapiens, UniProt P78362); experiment: Radiometric protein kinase assay (Eurofins); type: biochemical; settings: 40 min; ATP 10 μM; read-out: SRPK2 IC50
T10 construct: purchased Eurofins, Dundee, Scotland
Procedure: as §1, §2

[11] = molecular target: T11, CK2α2 (h) (Homo sapiens, UniProt P19784); experiment: Radiometric protein kinase assay (Eurofins); type: biochemical; settings: 40 min; ATP 10 μM; read-out: CK2a2 IC50
T11 construct: purchased Eurofins, Dundee, Scotland
Procedure: as §1, §2

[12] = molecular target: T12, PAK4 (h) (Homo sapiens, UniProt O96013); experiment: Radiometric protein kinase assay (Eurofins); type: biochemical; settings: 40 min; ATP 10 μM; read-out: PAK4 IC50
T12 construct: purchased Eurofins, Dundee, Scotland

[13] = tested on: PAK4; settings: read-out: PAK4 IC50 (previously reported designated target data); cited from earlier work

T2 sequence (Q96SB4 whole entry): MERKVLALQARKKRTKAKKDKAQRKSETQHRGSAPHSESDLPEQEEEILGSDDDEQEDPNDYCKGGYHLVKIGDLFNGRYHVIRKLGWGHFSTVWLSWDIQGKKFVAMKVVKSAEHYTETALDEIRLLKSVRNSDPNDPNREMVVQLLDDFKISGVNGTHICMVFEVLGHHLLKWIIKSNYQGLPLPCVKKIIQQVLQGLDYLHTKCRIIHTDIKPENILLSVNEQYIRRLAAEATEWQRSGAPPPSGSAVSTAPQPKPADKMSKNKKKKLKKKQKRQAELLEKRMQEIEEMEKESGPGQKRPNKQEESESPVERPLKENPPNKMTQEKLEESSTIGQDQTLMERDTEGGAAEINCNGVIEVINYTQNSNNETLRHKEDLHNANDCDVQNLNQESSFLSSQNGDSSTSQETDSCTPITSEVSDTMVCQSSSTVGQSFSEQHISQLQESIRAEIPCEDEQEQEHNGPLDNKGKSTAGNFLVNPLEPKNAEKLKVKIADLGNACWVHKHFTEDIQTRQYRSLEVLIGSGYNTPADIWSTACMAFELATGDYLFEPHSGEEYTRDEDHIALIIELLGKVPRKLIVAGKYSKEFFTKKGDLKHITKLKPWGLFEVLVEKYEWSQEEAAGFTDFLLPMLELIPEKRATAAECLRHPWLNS
T1 sequence (P27361 whole entry): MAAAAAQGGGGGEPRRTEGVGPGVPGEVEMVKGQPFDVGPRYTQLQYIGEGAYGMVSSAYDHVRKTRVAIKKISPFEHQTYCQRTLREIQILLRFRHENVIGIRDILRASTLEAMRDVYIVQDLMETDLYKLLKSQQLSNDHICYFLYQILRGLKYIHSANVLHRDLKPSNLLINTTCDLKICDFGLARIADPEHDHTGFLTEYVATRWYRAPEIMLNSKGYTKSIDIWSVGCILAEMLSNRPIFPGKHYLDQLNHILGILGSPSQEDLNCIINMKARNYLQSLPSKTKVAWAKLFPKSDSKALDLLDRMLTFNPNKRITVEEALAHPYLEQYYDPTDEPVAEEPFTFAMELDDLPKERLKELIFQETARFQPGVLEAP
T9 sequence (P49759 whole entry): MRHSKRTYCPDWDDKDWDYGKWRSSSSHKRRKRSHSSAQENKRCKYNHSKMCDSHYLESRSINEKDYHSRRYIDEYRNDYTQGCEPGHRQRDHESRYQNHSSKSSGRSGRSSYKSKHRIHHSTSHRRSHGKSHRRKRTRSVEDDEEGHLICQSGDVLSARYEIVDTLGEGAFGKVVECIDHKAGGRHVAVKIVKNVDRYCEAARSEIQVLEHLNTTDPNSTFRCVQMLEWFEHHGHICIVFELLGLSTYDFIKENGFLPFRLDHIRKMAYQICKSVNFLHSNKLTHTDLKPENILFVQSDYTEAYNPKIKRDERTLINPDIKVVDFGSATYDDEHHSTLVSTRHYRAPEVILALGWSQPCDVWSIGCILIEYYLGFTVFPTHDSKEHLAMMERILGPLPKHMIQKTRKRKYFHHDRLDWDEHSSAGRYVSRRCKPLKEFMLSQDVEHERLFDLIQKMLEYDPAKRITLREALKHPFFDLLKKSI
T4 sequence (P49761 whole entry): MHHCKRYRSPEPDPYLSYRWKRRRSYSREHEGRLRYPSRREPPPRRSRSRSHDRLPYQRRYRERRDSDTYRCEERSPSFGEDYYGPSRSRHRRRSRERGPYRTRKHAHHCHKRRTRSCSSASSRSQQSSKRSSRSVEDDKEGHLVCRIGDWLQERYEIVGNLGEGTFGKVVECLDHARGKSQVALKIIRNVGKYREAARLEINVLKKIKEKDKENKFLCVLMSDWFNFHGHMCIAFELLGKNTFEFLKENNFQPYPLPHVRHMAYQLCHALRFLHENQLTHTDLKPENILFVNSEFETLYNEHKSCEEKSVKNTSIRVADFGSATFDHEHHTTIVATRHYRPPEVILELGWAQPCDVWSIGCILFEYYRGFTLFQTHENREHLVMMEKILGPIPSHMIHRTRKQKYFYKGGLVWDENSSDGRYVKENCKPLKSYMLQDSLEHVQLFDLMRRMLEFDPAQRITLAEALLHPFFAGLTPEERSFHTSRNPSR
T10 sequence (P78362 whole entry): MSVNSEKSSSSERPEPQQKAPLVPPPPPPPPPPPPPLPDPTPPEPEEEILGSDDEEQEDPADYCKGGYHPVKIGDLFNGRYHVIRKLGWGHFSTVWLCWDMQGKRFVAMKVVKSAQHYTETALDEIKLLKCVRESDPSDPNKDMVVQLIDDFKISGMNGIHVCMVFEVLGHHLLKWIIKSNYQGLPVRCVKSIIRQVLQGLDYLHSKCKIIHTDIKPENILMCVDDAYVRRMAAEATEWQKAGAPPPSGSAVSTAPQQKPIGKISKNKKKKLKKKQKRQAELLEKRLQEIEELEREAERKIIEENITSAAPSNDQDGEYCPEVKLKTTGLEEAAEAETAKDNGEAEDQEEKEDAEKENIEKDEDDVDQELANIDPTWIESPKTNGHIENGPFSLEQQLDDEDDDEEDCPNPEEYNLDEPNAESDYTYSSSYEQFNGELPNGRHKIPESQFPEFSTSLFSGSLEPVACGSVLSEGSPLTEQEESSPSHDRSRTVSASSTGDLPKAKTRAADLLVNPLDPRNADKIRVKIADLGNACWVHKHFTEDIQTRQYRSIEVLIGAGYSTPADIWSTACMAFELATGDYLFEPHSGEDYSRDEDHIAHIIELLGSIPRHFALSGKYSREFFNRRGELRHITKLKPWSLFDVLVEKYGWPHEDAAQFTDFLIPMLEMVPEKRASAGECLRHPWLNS
T3 sequence (Q9UPE1 whole entry): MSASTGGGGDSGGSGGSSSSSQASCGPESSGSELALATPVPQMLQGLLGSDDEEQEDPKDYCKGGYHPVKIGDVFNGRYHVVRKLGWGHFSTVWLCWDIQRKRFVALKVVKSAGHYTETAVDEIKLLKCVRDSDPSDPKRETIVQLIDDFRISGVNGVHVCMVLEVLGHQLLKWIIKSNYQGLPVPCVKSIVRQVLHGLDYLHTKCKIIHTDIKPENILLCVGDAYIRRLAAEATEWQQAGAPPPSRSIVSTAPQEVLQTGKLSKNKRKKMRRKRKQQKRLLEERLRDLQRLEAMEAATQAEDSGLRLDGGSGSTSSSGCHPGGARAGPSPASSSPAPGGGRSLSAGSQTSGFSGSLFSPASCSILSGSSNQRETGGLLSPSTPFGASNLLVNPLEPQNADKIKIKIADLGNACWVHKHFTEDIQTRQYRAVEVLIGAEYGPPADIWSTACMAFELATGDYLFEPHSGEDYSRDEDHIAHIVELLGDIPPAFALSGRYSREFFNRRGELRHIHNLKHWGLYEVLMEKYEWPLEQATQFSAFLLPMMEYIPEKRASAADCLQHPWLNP
T7 sequence (P68400 whole entry): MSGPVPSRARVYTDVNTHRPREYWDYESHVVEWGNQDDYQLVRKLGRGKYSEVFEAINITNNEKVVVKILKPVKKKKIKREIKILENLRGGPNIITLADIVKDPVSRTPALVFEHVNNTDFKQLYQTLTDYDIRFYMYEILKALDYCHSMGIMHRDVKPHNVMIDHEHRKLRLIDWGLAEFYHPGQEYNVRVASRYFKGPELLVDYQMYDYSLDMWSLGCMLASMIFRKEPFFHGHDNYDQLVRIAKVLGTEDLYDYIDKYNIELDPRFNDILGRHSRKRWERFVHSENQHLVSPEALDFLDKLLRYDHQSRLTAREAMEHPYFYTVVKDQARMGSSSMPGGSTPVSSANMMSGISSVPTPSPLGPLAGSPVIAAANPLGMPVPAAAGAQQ
T7 sequence (P67870 whole entry partner): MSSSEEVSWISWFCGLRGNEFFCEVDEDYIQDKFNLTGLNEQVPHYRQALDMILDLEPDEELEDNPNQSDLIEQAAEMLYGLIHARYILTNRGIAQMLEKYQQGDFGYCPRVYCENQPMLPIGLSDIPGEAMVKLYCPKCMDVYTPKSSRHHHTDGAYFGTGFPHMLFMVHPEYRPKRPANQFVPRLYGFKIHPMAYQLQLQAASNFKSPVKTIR
T11 sequence (P19784 whole entry): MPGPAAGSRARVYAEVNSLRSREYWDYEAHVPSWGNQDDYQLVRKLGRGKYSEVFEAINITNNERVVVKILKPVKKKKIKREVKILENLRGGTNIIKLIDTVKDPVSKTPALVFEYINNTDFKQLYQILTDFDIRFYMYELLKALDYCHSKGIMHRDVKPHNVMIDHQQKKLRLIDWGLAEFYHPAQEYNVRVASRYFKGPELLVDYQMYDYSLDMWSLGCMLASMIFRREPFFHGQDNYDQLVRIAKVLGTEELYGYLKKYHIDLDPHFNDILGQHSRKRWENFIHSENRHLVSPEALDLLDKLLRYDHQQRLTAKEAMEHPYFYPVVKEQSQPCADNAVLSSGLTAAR
T8 sequence (Q9HAZ1 whole entry): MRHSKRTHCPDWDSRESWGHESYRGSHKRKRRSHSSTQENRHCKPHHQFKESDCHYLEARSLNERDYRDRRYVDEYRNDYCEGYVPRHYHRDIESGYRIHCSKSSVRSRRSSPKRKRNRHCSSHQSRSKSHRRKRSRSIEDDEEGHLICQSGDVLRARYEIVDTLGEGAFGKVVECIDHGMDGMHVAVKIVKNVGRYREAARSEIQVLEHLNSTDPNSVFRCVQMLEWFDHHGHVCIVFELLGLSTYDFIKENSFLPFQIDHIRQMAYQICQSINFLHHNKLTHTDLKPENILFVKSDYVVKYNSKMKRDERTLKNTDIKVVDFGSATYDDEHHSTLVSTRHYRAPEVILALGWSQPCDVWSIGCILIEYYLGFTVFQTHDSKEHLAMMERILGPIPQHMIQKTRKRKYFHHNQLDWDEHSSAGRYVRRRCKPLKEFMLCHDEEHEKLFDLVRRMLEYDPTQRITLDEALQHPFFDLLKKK

SMILES | inhibition at 1 µM [1] [%] | inhibition at 1 µM ([2]; 40 min, read-out: SRPK1 IC50) [%] | inhibition at 1 µM ([3]; 40 min, read-out: SRPK3 IC50) [%] | IC50 [4] [nM] | IC50 [5] [nM] | IC50 [6] [nM] | inhibition at 1 µM [7] [%] | IC50 [8] [nM] | IC50 [9] [nM] | inhibition at 1 µM [10] [%] | inhibition at 1 µM [11] [%] | inhibition at 1 µM [12] [%] | IC50 [13] [nM] | IC50 [2] [nM] | IC50 [3] [nM] | inhibition at 1 µM ([5]; 40 min, read-out: DYRK1A IC50) [%] | inhibition at 1 µM ([6]; 40 min, read-out: DYRK2 IC50) [%]
CNC(=O)c1nn(C)c2c1C(C)(C)Cc1cnc(Nc3ccc(N4CCN(C)CC4)cc3)nc1-2 [Compound 1, milciclib] | < 50 | < 50 | < 50 | 425 | 17 | 48 | < 50 | 13 | 3 | < 50 | < 50 | < 50 |  |  |  |  | 
Cc1nc(Nc2[nH]nc3c2CN(C(=O)N[C@H](CN(C)C)c2ccccc2)C3(C)C)c2sccc2n1 [Compound 2, PF-3758309] | < 50 |  |  | 485 |  |  | < 50 | 48 | 27 | < 50 | < 50 |  | […] | 170 | 189 | < 50 | < 50
